Patent US20140004122A1, “METHODS FOR TREATING OR PREVENTING CHOLESTEROL RELATED DISORDERS” (AMGEN INC., priority 2011, published 2014)

Tested on: hypercholesterolemic subjects with a 10 year Framingham risk score of 10% or less
Assay: 12 week monotherapy dose-ranging study (Example 24)
Type: in vivo, human
Method: Ezetimibe was not blinded. The end-of-study visit and the last estimation of lipids was at week 12 for subjects on Q4W IP schedule or on ezetimibe and week 14 for subjects on Q2W IP schedule.
Males and females, ≧18 to ≦75 years of age, were eligible for this study. Fasting LDL-C was ≧100 mg/dL (2.6 mmol/L) and <190 mg/dL (4.9 mmol/L) and fasting triglycerides ≦400 mg/dL (4.5 mmol/L) by central laboratory at screening.
The primary endpoint was the percent change from baseline in LDL-C at week 12. Secondary endpoints included percent changes in apolipoprotein B (ApoB), lipoprotein (a) (Lp(a)), and in the ratio of total cholesterol to high-density lipoprotein (HDL)-C. Tolerability and safety were also evaluated.

O=C1[C@H](CC[C@H](O)c2ccc(F)cc2)[C@@H](c2ccc(O)cc2)N1c1ccc(F)cc1 [Ezetimibe, ezetimibe, reference compound]
percent change from baseline in LDL-C (week 12, final data, ezetimibe QD PO): 14%
Least squares mean percent change from baseline (%) in LDL-C (week 12, Ezetimibe QD (N = 45)): −14.26%
